Assay results from article PMC2949542 (Analytical biochemistry, 2010).
Like-named read-outs stand apart in the source and are kept apart here.

Tests used:
[1] = molecular target: T1, carbonic anhydrase II (CAII) (Bos taurus, UniProt P00921); settings: read-out: KD (μM) ProteOn (2); BioRad ProteOn XPR36; cited from earlier work
[2] = molecular target: T1, carbonic anhydrase II (CAII); settings: read-out: KD (μM) Biacore (8); benchmark study on Biacore platforms; cited from earlier work
[3] = molecular target: T1, carbonic anhydrase II (CAII); test: SPR; settings: for kon: read-out: ka
[4] = molecular target: T1, carbonic anhydrase II (CAII); test: SPR standard injection, ADP over negative-control CAII surface; type: binding; settings: standard injections, two-fold dilution series from 300 uM, 25 °C

T1 sequence (P00921 whole entry): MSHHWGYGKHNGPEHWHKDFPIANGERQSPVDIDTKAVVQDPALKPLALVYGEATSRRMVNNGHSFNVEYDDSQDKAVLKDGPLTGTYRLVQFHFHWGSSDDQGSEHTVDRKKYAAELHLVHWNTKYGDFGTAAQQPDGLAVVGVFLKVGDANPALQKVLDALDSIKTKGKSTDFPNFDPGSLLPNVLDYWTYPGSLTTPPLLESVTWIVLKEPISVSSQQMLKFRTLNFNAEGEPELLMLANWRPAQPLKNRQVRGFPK

Structure (SMILES)	Kd [3] [nM]	kon [3] [M⁻¹ s⁻¹]	binding on negative-control CAII surface [4]	Kd [1] [µM]	Kd [2] [µM]
NS(=O)(=O)c1ccccc1 [Benzenesulfonamide]	970	135000	–	1.1	0.8
CN(C)c1cccc2c(S(N)(=O)=O)cccc12 [Dansylamide]	–	–	–	0.8	0.4

Now from value to compound, other results behind:

Kd [3] [nM]	kon [3] [M⁻¹ s⁻¹]	binding on negative-control CAII surface [4]	Structure (SMILES)	Kd [1] [µM]	Kd [2] [µM]
613	179000	–	NS(=O)(=O)c1cccc(S(N)(=O)=O)c1 [1,3-Benzenedisulfonamide]	0.64	0.8
5200	7300	–	NCc1ccc(S(N)(=O)=O)cc1 [4-(Aminomethyl)benzenesulfonamide]	–	3
–	–	no reliable ADP binding was observed	Nc1ncnc2c1ncn2[C@@H]1O[C@H](COP(=O)(O)OP(=O)(O)O)[C@@H](O)[C@H]1O [ADP, adenosine diphosphate]	–	–
